# Test results taken from the supplement of paper PMC11451515.
# System: NOMO1
# Test: cell viability relative to DMSO control; higher = less cytotoxic
# Settings: 48 h
# Method in brief: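 Viability is expressed as a percentage of DMSO wells within each plate, and cell-free wells serve as background. Seeding densities in the 1536-well plates (5 μl) were 500 cells/well for NOMO1 or SEM leukemia cells and 1000 cells/well for P12-Ichikawa. Each line was adapted for at least four passages in each medium. Library compounds in DMSO were pin-dosed at 47 μM to 0.79 nM (11 points, threefold), and CellTiter-Glo One luminescence was read after 48 h at 37°C.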
# [1] = HPLM + 10% dialyzed FBS, 0.000781 µM
# [2] = HPLM + 10% dialyzed FBS, 0.00234 µM
# [3] = HPLM + 10% dialyzed FBS, 0.00702 µM
# [4] = HPLM + 10% dialyzed FBS, 0.0211 µM
# [5] = HPLM + 10% dialyzed FBS, 0.0632 µM
# [6] = HPLM + 10% dialyzed FBS, 0.19 µM
# [7] = HPLM + 10% dialyzed FBS, 0.569 µM
# [8] = HPLM + 10% dialyzed FBS, 1.71 µM
# [9] = HPLM + 10% dialyzed FBS, 5.12 µM
# [10] = HPLM + 10% dialyzed FBS, 15.4 µM
# [11] = HPLM + 10% dialyzed FBS, 46.1 µM
# [12] = RPMI 5 mM glucose + 10% FBS, 0.000781 µM
# [13] = RPMI 5 mM glucose + 10% FBS, 0.00234 µM
# [14] = RPMI 5 mM glucose + 10% FBS, 0.00702 µM
# [15] = RPMI 5 mM glucose + 10% FBS, 0.0211 µM
# [16] = RPMI 5 mM glucose + 10% FBS, 0.0632 µM
# [17] = RPMI 5 mM glucose + 10% FBS, 0.19 µM
# [18] = RPMI 5 mM glucose + 10% FBS, 0.569 µM
# [19] = RPMI 5 mM glucose + 10% FBS, 1.71 µM
# [20] = RPMI 5 mM glucose + 10% FBS, 5.12 µM
# [21] = RPMI 5 mM glucose + 10% FBS, 15.4 µM
# [22] = RPMI 5 mM glucose + 10% FBS, 46.1 µM
# [23] = RPMI 5 mM glucose + 10% dialyzed FBS, 0.000781 µM
# [24] = RPMI 5 mM glucose + 10% dialyzed FBS, 0.00234 µM
# [25] = RPMI 5 mM glucose + 10% dialyzed FBS, 0.00702 µM
# [26] = RPMI 5 mM glucose + 10% dialyzed FBS, 0.0211 µM
# [27] = RPMI 5 mM glucose + 10% dialyzed FBS, 0.0632 µM
# [28] = RPMI 5 mM glucose + 10% dialyzed FBS, 0.19 µM
# [29] = RPMI 5 mM glucose + 10% dialyzed FBS, 0.569 µM
# [30] = RPMI 5 mM glucose + 10% dialyzed FBS, 1.71 µM
# [31] = RPMI 5 mM glucose + 10% dialyzed FBS, 5.12 µM
# [32] = RPMI 5 mM glucose + 10% dialyzed FBS, 15.4 µM
# [33] = RPMI 5 mM glucose + 10% dialyzed FBS, 46.1 µM
SMILES,cell viability [1],cell viability [2],cell viability [3],cell viability [4],cell viability [5],cell viability [6],cell viability [7],cell viability [8],cell viability [9],cell viability [10],cell viability [11],cell viability [12],cell viability [13],cell viability [14],cell viability [15],cell viability [16],cell viability [17],cell viability [18],cell viability [19],cell viability [20],cell viability [21],cell viability [22],cell viability [23],cell viability [24],cell viability [25],cell viability [26],cell viability [27],cell viability [28],cell viability [29],cell viability [30],cell viability [31],cell viability [32],cell viability [33]
Clc1ccc(-c2nc3sccn3c2/C=N/OCc2ccc(Cl)c(Cl)c2)cc1,122%,113%,128%,126%,125%,110%,109%,108%,99.6%,101%,122%,121%,114%,117%,120%,112%,109%,101%,104%,117%,103%,108%,101%,110%,123%,125%,114%,98%,113%,114%,111%,99.8%,111%
CN[C@H]1CCC2=CC(=C(OC)C(=C2C/3=C/C=C(OC)\C(=O)/C=C13)OC)OC,119%,96%,75.2%,30.1%,32.9%,38.4%,43.5%,40.9%,31.4%,33.9%,25.8%,120%,109%,90.7%,22.8%,22.3%,24.5%,25.4%,22.4%,21.1%,17.1%,10.4%,108%,97.1%,102%,23.5%,31.9%,28.3%,27.9%,28.7%,23.1%,21.9%,14.3%
O=C(Nc1cc(Cl)cc2c1[nH]c1cnccc12)c1cccnc1,,,,,,,,,,,,,,,,,,,,,,,118%,114%,124%,110%,110%,124%,131%,123%,117%,109%,109%
COc1ccc([C@@H]2CC(=O)c3c(O)cc(O[C@@H]4O[C@H](CO[C@@H]5O[C@@H](C)[C@H](O)[C@@H](O)[C@H]5O)[C@@H](O)[C@H](O)[C@H]4O)cc3O2)cc1O,107%,117%,122%,128%,116%,123%,125%,118%,115%,108%,103%,120%,106%,107%,114%,121%,118%,117%,123%,120%,119%,118%,98.8%,106%,115%,113%,110%,96.6%,115%,125%,115%,101%,101%
Cc1nc2cnc3ccc(C#Cc4cccnc4)cc3c2n1-c1ccc(C(C)(C)C#N)cc1,72.6%,84.9%,82.3%,83.2%,50.2%,59.6%,38.7%,44.8%,43.3%,36.3%,8.48%,65%,78.6%,69.6%,81.1%,61.8%,62.7%,32%,47.1%,44.1%,38.6%,7.85%,66.4%,81.6%,91.9%,84.9%,56.7%,60.7%,30.4%,48.8%,40.1%,48.4%,9.18%
CCOC(=O)N1CCN(/[N+]([O-])=N/Oc2ccc([N+](=O)[O-])cc2C#N)CC1,118%,99.3%,109%,110%,135%,114%,117%,97.1%,39.5%,39.6%,36.1%,98.4%,97.4%,114%,105%,102%,105%,122%,120%,24.5%,24.6%,18.2%,92.8%,106%,129%,111%,126%,115%,118%,108%,30.8%,24.6%,18.3%
NC\1=N\C(=O)N(\C=C1)[C@@H]2O[C@H](CO)[C@@H](O)[C@@H]2O,76.3%,79.8%,47.7%,62.9%,33.9%,30.6%,31.5%,25.8%,20.3%,20%,6.26%,76%,83.3%,83.1%,74.8%,54.1%,24.4%,25.1%,21.3%,14.6%,8.18%,3.59%,66.8%,68.6%,53.4%,49.9%,29.8%,18.3%,25.8%,14.7%,16.6%,12.6%,7.75%
C[C@@H](Oc1cc(-c2cnn(C3CCNCC3)c2)cnc1N)c1c(Cl)ccc(F)c1Cl,,,,,,,,,,,,118%,116%,113%,115%,131%,129%,108%,107%,96.3%,71.8%,56.2%,114%,116%,107%,124%,118%,119%,119%,110%,83%,64.8%,47.4%
